Data on one molecule can be found in patent US20130261045A1, “GREEN TEA POLYPHENOL ALPHA SECRETASE ENHANCERS AND METHODS OF USE” (UNIVERSITY OF SOUTH FLORIDA, priority 2005, published 2013).

What all share (format): cell-based, murine
Assay [1] concerns α-secretase. Briefly: α-secretase cleavage activity kit, lysates of APP-transfected N2a cells. Particulars: first 1 to 3 hours after EGCG.
Assay [2] relates to APP α-secretase cleavage. Briefly: Western blot of APP CTFs and sAPP-α in SweAPP N2a cells (Examples 6-7, with or without siRNA knock-down). Particulars: various doses of EGCG, 8 h. From the text:
FIGS. 8A-8H show EGCG-induced ADAM10 activation correlates with APP α-secretase cleavage in vitro. […] Data were represented as % change relative to control (medium from cultured SweAPP N2a cells or primary neuronal cells without any treatment).
FIGS. 10A-10C show ADAM10 is required for EGCG-induced APP α-secretase cleavage. […] In FIG. 10A, cell lysates were subjected to WB for APP CTFs and ADAM10 cleavage analyses. […] In FIG. 10B, cell culture media were subjected to WB for sAPP-α secretion. […] In FIG. 10C, cell culture media were subjected to Aβ ELISA. Data are represented as % change relative to control (medium from cultured SweAPP N2a cells without any treatment). […] Data are representative of three independent experiments.
Cultured cells were lysed in ice-cold lysis buffer described above, and an aliquot corresponding to 50 μg of total protein was electrophoretically separated using 16.5% Tris-tricine gels. […] Densitometric analysis was done using the Fluor-S MultiImager™ with Quantity One™ software (Bio-Rad). […]
SweAPP N2a cells were transfected with siRNA pre-designed to knock-down murine ADAM9, 10, or 17 mRNA (Dharmacon Inc. Lafayette, Colo.). […] Transfection efficiency was determined to be greater than 80% (data not shown) using no-RISC siGLOW (fluorescently labeled non-functional siRNA; Dharmacon). […] The cells were evaluated by Western blot analysis for expression of ADAM9, 10 or 17. […]

Assay [3] concerns ADAM10. Briefly: Western blot of ADAM10 maturation in SweAPP N2a cells. On the procedure:
(§1) Cultured cells were lysed in ice-cold lysis buffer described above, and an aliquot corresponding to 50 μg of total protein was electrophoretically separated using 16.5% Tris-tricine gels. Electrophoresed proteins were then transferred to PVDF membranes (Bio-Rad, Richmond, Calif.), washed in ddH2O, and blocked for 1 h at ambient temperature in Tris-buffered saline (TBS; Bio-Rad) containing 5% (w/v) non-fat dry milk. After blocking, membranes were hybridized for 1 h at ambient temperature with various primary antibodies. Membranes were then washed 3 times for 5 min each in ddH2O and incubated for 1 h at ambient temperature with the appropriate HRP-conjugated secondary antibody (1:1,000, Pierce Biotechnology, Inc. Rockford, Ill.). All antibodies were diluted in TBS containing 5% (w/v) of non-fat dry milk. Blots were developed using the luminol reagent (Pierce Biotechnology). Densitometric analysis was done using the Fluor-S MultiImager™ with Quantity One™ software (Bio-Rad). For examining sAPP-α, conditioned medium was collected following treatment according to a modified protocol from Chen and Fernandez (Chen et al., 2004). sAPP-α was extracted using 3K Nanosep centrifugal filters (Pall Life Sciences, Ann Arbor, Mich.) and protein concentrate was prepared for the aforementioned electrophoresis. […]

For assay [4], the system named is ADAM17. Briefly: Western blot of ADAM17 in SweAPP N2a cells. Particulars: EGCG treatment; data not shown. On the procedure:
as §1
(A western blot detects proteins with antibodies after separation by electrophoresis.)

SMILES strings stand for the structures.

As for `O=C(O[C@@H]1Cc2c(O)cc(O)cc2O[C@@H]1c1cc(O)c(O)c(O)c1)c1cc(O)c(O)c(O)c1` [EGCG, (−)-epigallocatechin-3-gallate], the “α-secretase cleavage activity in cell lysate” value in assay [1] is “markedly elevated”. In assay [2], the sAPP-α result is on record as “dose-dependent increases” and the α-CTF result was “dose-dependent increases”. Besides, in assay [3] (20 μM, as early as 30 min, continued to increase through 120 min), the “mature ADAM10, temporal analysis” value is on record as “significant increases”. Also, in assay [3] (various doses of EGCG, 8 h), the “mature ADAM10 (~60 kDa isoform) protein level” value is listed as “dose-dependently increased”. In addition, the ADAM17 expression entry in assay [4] was “no significant effects”.
